The values that follow come from patent US12691070B2, “Cationic lipids and preparation method thereof” (RiboX Therapeutics HK Limited, priority 2023, dated 2026).

Data set [1] is described as follows: LNP zeta potential (Zetasizer). Type of data set: physicochemical. As to conditions: LNP with cirRNA (SEQ ID NO: 1). The method, boiled down: (§1)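 Dynamic light scattering and zeta potential measurements were run on PBS-dialyzed LNPs, which had been formed by microfluidic mixing at 12 ml/min with final lipid at 1.5 mM to 6 mM. RNA content and percent encapsulation were determined by Ribogreen with and without Triton X-100.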

The subject of data set [2] is RAW 264.7 cells. The data set is described as follows: In vitro toxicity (CellTiter-Glo cell viability), RAW 264.7.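 Note: percent of untreated cells luminescence signal.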 Type of data set: cell-based. The settings on record: cirRNA (SEQ ID NO: 1) LNPs; RAW 264.7 cells. Put shortly:
(§2)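 Toxicity of RNA-LNPs (1 μg/mL) is reported as cell viability, calculated from CellTiter-Glo luminescence measured at 72 hours after transfection.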

A short description of data set [3]: LNP size and polydispersity index (PDI) by dynamic light scattering. In kind it is physicochemical. The settings on record: LNP with cirRNA (SEQ ID NO: 1); for Size: in nm (unit assumed). The method, boiled down:
as §1

Data set [4] is described as follows: RNA encapsulation efficacy by Quant-IT Ribogreen kit. The settings on record: LNP with cirRNA (SEQ ID NO: 1). In kind it is physicochemical. The method, boiled down:
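LNPs of ionizable lipid/DSPC/cholesterol/DMG-PEG 2000 (50:10:38.5:1.5) made by microfluidic mixing of luciferase circRNA or mRNA in pH 4.5 acetate with lipids in ethanol (3:1, 12 ml/min), ionizable lipid:nucleotide 15 or 6, then dialyzed against PBS. Size, PDI (DLS) and zeta potential on Zetasizer; encapsulation by Ribogreen ± Triton X-100.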

The test system of data set [5] is BALB/C mice. The data set is described as follows: In vivo expression, whole-body luminescence (IVIS). The settings on record: cirRNA (SEQ ID NO: 1) LNPs, BALB/C mice. The protocol: 6-8 week old, female BALB/C mice were injected with 0.05 mg*kg-1 of RNA-LNPs encoding for firefly-luciferase by intravenous injection. At 6 hours post injection, animals were intraperitoneally injected with 15 mg/ml of Luciferin substrate and whole-body luminescence was determined by a bioluminescent in vivo imaging system (IVIS).

In data set [6] the test system is Hep G2 cells. The experiment in a line: In vitro expression of firefly-luciferase, Hep G2. In kind it is cell-based. The settings on record: cirRNA (SEQ ID NO: 1) LNPs; firefly-luciferase luminescence; Hep G2 cells. The method, boiled down: (§3)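 Cells were transfected with firefly-luciferase-encoding RNA-LNPs at 100 ng/mL. After 72 hours they were washed and lysed, and luciferase activity in the lysates was read by luminometry.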

The test system of data set [7] is RAW 264.7 cells. The experiment in a line: In vitro expression of firefly-luciferase, RAW 264.7. Type of data set: cell-based. The settings on record: cirRNA (SEQ ID NO: 1) LNPs; firefly-luciferase luminescence; RAW 264.7 cells. Put shortly:
as §3

For data set [8], the system named is Hep G2 cells. The experiment in a line: In vitro toxicity (CellTiter-Glo cell viability), Hep G2.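 Note: percent of untreated cells luminescence signal.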 In kind it is cell-based. As to conditions: cirRNA (SEQ ID NO: 1) LNPs; Hep G2 cells. Put shortly: as §2
A general note: Cellular ATP, detected with luciferase, serves as a proxy for viable cell number.

As for `CCCCCCCCC(CCCCCC)C(=O)OCCCCCCCCN(CCCCCCCCOC(=O)C(CCCCCC)CCCCCCCC)CCCOC(=O)NCCN1CCN(C)CC1` (stereo not drawn) [Lipid 377], the “Zeta (mV)” value in data set [1] stood at 2.594 mV. The “In vitro Viability RAW” value in data set [2] was 85%. In data set [3], this compound displayed a PDI of 0.2338 and a Size of 112.8. For the same compound, the “Encapsulation Efficiency %” value in data set [4] turned out to be 93%. In data set [5], the “In vivo Expression (Whole Body)” value was determined as 8.84E+06. The “In vitro Expression HepG2” value in data set [6] is recorded as 2.55E+06. For the same compound, the “In vitro Expression RAW” value in data set [7] turned out to be 1.05E+05. Further, in data set [8], the “In vitro Viability HepG2” value amounted to 71%.

For the compound `CCCCCCCC/C=C\CCCCCCCCN(CCCCCCCCOC(=O)C(CCCCCC)CCCCCCCC)CCOC(=O)NCCN1CCCC1` (stereo not drawn) [Lipid 218], in data set [1], the “Zeta (mV)” value was 5.94 mV. Further, the “In vitro Viability RAW” value in data set [2] is 62%. In data set [3], this compound had a PDI of 0.3124 and a Size of 96.36. Moreover, the “Encapsulation Efficiency %” value in data set [4] is reported as 96%. In addition, the “In vivo Expression (Whole Body)” value in data set [5] amounted to 7.53E+07. Besides, the “In vitro Expression HepG2” value in data set [6] is 5.25E+06. Moreover, in data set [7], the “In vitro Expression RAW” value was 9.16E+04. In data set [8], the “In vitro Viability HepG2” value was determined as 71%.

For `CCCCCCCCCCC(CCCCCCCC)COC(=O)CCCCCN(CCCCCC(=O)OCC(CCCCCCCC)CCCCCCCCCC)CCCOC(=O)NCc1ncc[nH]1` (stereo not drawn) [Lipid 365], the “Zeta (mV)” value in data set [1] is −2.341 mV. Also, the “In vitro Viability RAW” value in data set [2] came out at 88%. In data set [3], this compound returned a PDI of 0.1303 and a Size of 72.69. Besides, the “Encapsulation Efficiency %” value in data set [4] was 92%. Besides, in data set [5], the “In vivo Expression (Whole Body)” value is 1.32E+08. Moreover, the “In vitro Expression HepG2” value in data set [6] came out at 3.17E+05. The “In vitro Expression RAW” value in data set [7] amounted to 3.87E+04. In data set [8], the “In vitro Viability HepG2” value is reported as 109%.

For `CCCCC/C=C\C/C=C\CCCCCCCCN(CCCCCCCC/C=C\C/C=C\CCCCC)CCOC(=O)NCCN1CCCCC1` [Lipid 85], the “Zeta (mV)” value in data set [1] was determined as 4.031 mV. Besides, the “In vitro Viability RAW” value in data set [2] came to 105%. In data set [3], this compound yielded a PDI of 0.1671 and a Size of 81.48. For the same compound, the “Encapsulation Efficiency %” value in data set [4] came to 91%. In data set [5], the “In vivo Expression (Whole Body)” value is listed as 1.96E+07. Moreover, in data set [6], the “In vitro Expression HepG2” value is recorded as 2.85E+07. The “In vitro Expression RAW” value in data set [7] stood at 5.74E+05. Also, in data set [8], the “In vitro Viability HepG2” value amounted to 78%.

Take `CCCCC/C=C\C/C=C\CCCCCCCCN(CCCCCCCC/C=C\C/C=C\CCCCC)CCOC(=O)NCc1ccncc1` [Lipid 35, 2-(di((9Z,12Z)-octadeca-9,12-dien-1-yl)amino)ethyl (pyridin-4-ylmethyl)carbamate]: the “Zeta (mV)” value in data set [1] is listed as −6.298 mV. In addition, the “In vitro Viability RAW” value in data set [2] was determined as 108%. In data set [3], this compound displayed a PDI of 0.115 and a Size of 116.3. Also, in data set [4], the “Encapsulation Efficiency %” value is reported as 71%. Also, in data set [5], the “In vivo Expression (Whole Body)” value was found to be 1.16E+05. In data set [6], the “In vitro Expression HepG2” value was found to be 2.82E+02. Also, the “In vitro Expression RAW” value in data set [7] was 6.25E+03. In addition, in data set [8], the “In vitro Viability HepG2” value was 103%.

In the case of `CCCCCCCCCCCOC(=O)CCCCCN(CCCCCC(=O)OCCCCCCCCCCC)CCOC(=O)NCCN1CCCC1` [Lipid 151, diundecyl 6,6′-((2-(((2-(pyrrolidin-1-yl)ethyl)carbamoyl)oxy)ethyl)azanediyl)dihexanoate], the “Zeta (mV)” value in data set [1] is recorded as 20.18 mV. Also, in data set [2], the “In vitro Viability RAW” value is 99%. Besides, in data set [3], the PDI worked out at 0.1693 and the Size is recorded as 98.37. Besides, the “Encapsulation Efficiency %” value in data set [4] came to 89%. In data set [5], the “In vivo Expression (Whole Body)” value amounted to 1.18E+05. For the same compound, in data set [6], the “In vitro Expression HepG2” value is 8.79E+03. The “In vitro Expression RAW” value in data set [7] is 3.27E+01. The “In vitro Viability HepG2” value in data set [8] is recorded as 110%.

Turning to `CCCCCCCC/C=C\CCCCCCCCN(CCCCCCCCOC(=O)C(CCCCCC)CCCCCCCC)CCOC(=O)NCCN1CCCCC1` (stereo not drawn) [Lipid 219], the “Zeta (mV)” value in data set [1] is reported as 0.7668 mV. Moreover, the “In vitro Viability RAW” value in data set [2] was 80%. In data set [3], this compound returned a PDI of 0.1125 and a Size of 76.57. The “Encapsulation Efficiency %” value in data set [4] is 93%. Further, in data set [5], the “In vivo Expression (Whole Body)” value came to 1.34E+08. For the same compound, the “In vitro Expression HepG2” value in data set [6] is listed as 7.09E+05. In addition, in data set [7], the “In vitro Expression RAW” value was found to be 3.53E+04. The “In vitro Viability HepG2” value in data set [8] turned out to be 58%.

Take `CCCCCCCCCCC(CCCCCCCC)COC(=O)CCCCCN(CCCCCC(=O)OCC(CCCCCCCC)CCCCCCCCCC)CCOC(=O)NCCN1CCN(C)CC1` (stereo not drawn) [Lipid 173]: the “Zeta (mV)” value in data set [1] was −0.5735 mV. The “In vitro Viability RAW” value in data set [2] is 90%. In data set [3], this compound returned a PDI of 0.3423 and a Size of 73.65. Besides, the “Encapsulation Efficiency %” value in data set [4] is listed as 82%. Moreover, the “In vivo Expression (Whole Body)” value in data set [5] is given as 3.45E+07. In data set [6], the “In vitro Expression HepG2” value was 3.32E+07. In addition, in data set [7], the “In vitro Expression RAW” value is 9.48E+05. For the same compound, the “In vitro Viability HepG2” value in data set [8] is reported as 57%.

Turning to `CCCCCCCCCC(=O)OCCCCCCCN(CCCCCCCCOC(=O)C(CCCCCC)CCCCCCCC)CCCOC(=O)NCCCN(C)C` (stereo not drawn) [Lipid 355], in data set [1], the “Zeta (mV)” value is recorded as 8.299 mV. Moreover, in data set [2], the “In vitro Viability RAW” value was found to be 72%. For the same compound, in data set [3], the PDI is 0.2834 and the Size is recorded as 64.55. In addition, the “Encapsulation Efficiency %” value in data set [4] stood at 90%. For the same compound, the “In vivo Expression (Whole Body)” value in data set [5] was found to be 7.94E+05. Moreover, in data set [6], the “In vitro Expression HepG2” value was found to be 1.70E+03. Besides, the “In vitro Expression RAW” value in data set [7] amounted to 9.80E+02. The “In vitro Viability HepG2” value in data set [8] turned out to be 123%.

On to `CCCCCCCCC(CCCCCC)C(=O)OCCCCCCCCN(CCCCCCCCOC(=O)C(CCCCCC)CCCCCCCC)CCCNCCCN(CC)CC` (stereo not drawn) [Lipid 385], for which the “Zeta (mV)” value in data set [1] is 11.28 mV. In addition, the “In vitro Viability RAW” value in data set [2] was found to be 80%. In data set [3], the PDI is 0.2458 and the Size turned out to be 159. Further, the “Encapsulation Efficiency %” value in data set [4] is 94%. In addition, in data set [5], the “In vivo Expression (Whole Body)” value was found to be 1.79E+06. Besides, the “In vitro Expression HepG2” value in data set [6] came out at 1.31E+05. In addition, the “In vitro Expression RAW” value in data set [7] turned out to be 1.37E+04. Besides, the “In vitro Viability HepG2” value in data set [8] was 74%.

On to `CCCCC/C=C\C/C=C\CCCCCCCCN(CCCCCCCC(=O)OC(CCCCCCCC)CCCCCCCC)CCCOC(=O)NCCN1CCN(C)CC1` [Lipid 273], for which, in data set [1], the “Zeta (mV)” value is 1.543 mV. Also, in data set [2], the “In vitro Viability RAW” value stood at 121%. Besides, in data set [3], the PDI amounted to 0.257 and the Size amounted to 88.34. Moreover, in data set [4], the “Encapsulation Efficiency %” value is 95%. The “In vivo Expression (Whole Body)” value in data set [5] came out at 5.16E+06. The “In vitro Expression HepG2” value in data set [6] came to 6.48E+06. For the same compound, the “In vitro Expression RAW” value in data set [7] stood at 1.35E+06. Besides, the “In vitro Viability HepG2” value in data set [8] was found to be 93%.

For the compound `CCCCC/C=C\CCOC(=O)CCCCCN(CCCCCC(=O)OCC(CCCCCCCC)CCCCCCCCCC)CCOC(=O)NCCN1CCCC1` (stereo not drawn) [Lipid 244], the “Zeta (mV)” value in data set [1] is −0.164 mV. Besides, the “In vitro Viability RAW” value in data set [2] was found to be 90%. In data set [3], this compound returned a PDI of 0.3577 and a Size of 87.4. Also, the “Encapsulation Efficiency %” value in data set [4] is listed as 96%. Also, the “In vivo Expression (Whole Body)” value in data set [5] is 3.95E+07. Further, the “In vitro Expression HepG2” value in data set [6] came out at 3.62E+06. Further, the “In vitro Expression RAW” value in data set [7] came out at 9.56E+02. In data set [8], the “In vitro Viability HepG2” value is reported as 94%.
